The values below come from patent publication US9522928B2, “Mannosylated compounds useful for the prevention and the treatment of infectious diseases” (UNIVERSITE DE STRASBOURG, priority 2011, dated 2016).

Molecules are shown by their SMILES. “Also recorded” adds a separate entry of the source.

Common to all, as to type: cell-based
The subject of test [1] is HIV-1 (R5 strain). Put plainly: HIV-1 cis-infection and replication in DCs (p24Gag ELISA). The conditions noted are these: 10 and 100 μM, p24Gag in supernatant. The procedure: Human monocyte-derived dendritic cells (2×10^5; 300 μL) in RPMI 1640 medium containing 10% FBS were pre-treated with either anti-DC-SIGN antibodies (clone AZND1, Beckman-Coulter; 10 μg/mL) or compounds TriManC24 and TriManC24insat (10 and 100 μM) for 30 min at 37° C., before inoculation with HIV-1 (R5 strain; 100 ng of p24Gag). After 3 h, cells were pelleted and extensively washed to remove excess virus and compounds. On day 2, 4 and 7 after infection, cells were pelleted, an aliquot of the supernatant was removed and kept at −20° C., and half of the supernatant was replaced with fresh medium. Viral replication was monitored by measuring p24Gag levels in the culture supernatant by an enzyme-linked immunosorbent assay (ELISA, Innogenetics). […] As shown in the case of Dengue virus, the compounds of the invention may also interfere with HIV cis-infection. […] Discussion

For test [2], the target named is T1, DC-SIGN (Homo sapiens, UniProt Q9NNX6).
T1 construct: endogenous in cells; host or cells: human monocyte-derived dendritic cells (GM-CSF/IL-4 differentiated)
T1 sequence (Q9NNX6 1-404): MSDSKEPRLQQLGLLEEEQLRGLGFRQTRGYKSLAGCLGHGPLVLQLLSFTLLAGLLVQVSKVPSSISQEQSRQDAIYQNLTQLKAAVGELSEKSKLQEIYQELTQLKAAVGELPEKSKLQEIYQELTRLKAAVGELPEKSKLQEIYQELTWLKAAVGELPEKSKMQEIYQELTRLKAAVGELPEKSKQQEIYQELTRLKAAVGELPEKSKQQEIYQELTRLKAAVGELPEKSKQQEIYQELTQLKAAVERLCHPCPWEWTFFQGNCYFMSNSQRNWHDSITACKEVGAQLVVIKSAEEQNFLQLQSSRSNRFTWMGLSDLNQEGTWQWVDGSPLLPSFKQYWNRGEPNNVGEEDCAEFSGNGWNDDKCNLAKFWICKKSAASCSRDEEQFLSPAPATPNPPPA
Nature of the test: DC-SIGN internalization in DCs (flow cytometry, confocal microscopy). The conditions noted are these: 100 μM. Here is the method:
To visualize the effect on DC-SIGN, cells were either left untreated or exposed to TriMan (100 μM final) for 45 min at 37° C., fixed with 4% paraformaldehyde for 15 min at room temperature, washed, permeabilized with 0.1% Triton X-100 for 3 min at 20° C., washed and labeled with an anti-DC-SIGN primary monoclonal antibody clone 111H2 (Canard, et al., 2011), followed by a secondary FITC-labeled anti-mouse-IgG (Southern Biotech). Nuclei were labeled with DAPI. Slides were mounted and processed as above.
Moreover, expression of DC-SIGN was visualized with a fluorescently-labeled antibody by confocal fluorescence microscopy. In untreated cells, DC-SIGN was mostly located at the cell membrane, in agreement with previous reports (Engering, et al., 2002). Upon exposure to TriManC24, DC-SIGN was detected both at the cell membrane and within the cytoplasm. […] The effect of TriManC24 on DC-SIGN cellular localization was assessed by flow cytometry analyses of DCs, in the absence or presence of TriManC24.

The subject of test [3] is HIV-1 X4. Nature of the test: HIV-1 X4 trans-infection of MAGI-CCR5 cells mediated by DCs. Here is the method: ManC1, […] (comparative) and compounds of the invention (ManC24, ManC17, TriManC24, TriDiManC24, TriManinsatC24 and ManinsatC24) were serially diluted in water. Human DCs (1×10^5 in 200 μl ) were pre-treated with different concentrations of compounds, or mannan (Sigma) or culture medium alone, in RPMI 1640 medium containing 10% FBS for 45 min at 37° C., prior infection with HIV-1 (100 ng of p24Gag) for 3 h. Excess free virus and molecules were removed by three washes. DCs were then cocultured with MAGI -CCR5 cells (1×10^5) at 37° C. plated in a 48-well plate. After two days, viral infection of MAGI-CCR5 cells was quantitated following beta-galactosidase assays and enumerating blue cells by light microscopy.
The IC50 were determined by serial dilution of each compound. The trans-infection assays were repeated a minimum of three times, and the IC50 determined using KaleidaGraph.
To investigate the ability of the compounds of the invention to inhibit HIV-1 trans infection, we chose to infect human DCs in order to best mimic in vivo conditions. […] This procedure allows precise quantification of HIV-1 replication in reporter MAGI-CCR5 cells by detection of beta-galactosidase activity. […] Upon viral entry leading to viral Tat expression and activation of the LTR, these cells permit quantification of HIV trans-infection after two days.

`CCCCCCCCCCCCCCCCCCCCCCCCC(=O)NC(COCCC(=O)NCCOCCOCCOCCOC1OC(CO)C(O)C(O)C1O)(COCCC(=O)NCCOCCOCCOCCOC1OC(CO)C(O)C(O)C1O)COCCC(=O)NCCOCCOCCOCCOC1OC(CO)C(O)C(O)C1O` (stereo not drawn) [TriManC24]: the “inhibition of HIV-1 cis-infection / replication in DCs (in words)” value in test [1] was “decreases the amount of HIV R5 replication; also recorded: inhibit”. The DC-SIGN receptors internalized entry in test [2] is listed as “about 20%”. Moreover, the “residual level of trans-infection” value in test [3] came to 15%.
